Drawing on PubChem BioAssay (NCI), this text covers GI50 and TGI for 12 molecules.

The structures appear in SMILES notation.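 Five concentrations, 48 hours, 96-well plates. The concentration for 50% growth inhibition is given as GI50. TGI: total growth inhibition.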

Usually GI50 stands for the concentration at which growth is held to half of that of the control. The TGI is the concentration giving total growth inhibition. High values mean less potent growth arrest, low ones more potent growth arrest.

Among the test systems are RPMI-8226 leukemia; SR leukemia; HT29 colon; SNB-19 CNS; TK-10 renal; IGROV1 ovarian; M14 melanoma; OVCAR-4 ovarian.
Common to all, as to assay: DTP human tumour cell line panel, 48 h

Consider `CCC[CH2][Sn]1([CH2]CCC)[O]CC(CN(C)Cc2ccccc2)[O]1` (configuration not stated), for which the GI50 in the assay with RPMI-8226 leukemia was 2.75 µM; in the assay on SR leukemia it was 4.31 µM; in the assay with HT29 colon it was 15.2 µM; in the assay on SNB-19 CNS, 12.6 µM; with TK-10 renal, 3.63 µM; in the assay on IGROV1 ovarian it was 14.8 µM. Further, the GI50 in the assay with M14 melanoma is 2.45 µM; in the assay on OVCAR-4 ovarian, 10.7 µM. Besides, the total growth inhibition concentration (TGI) in the assay with RPMI-8226 leukemia was determined as 7.79 µM; in the assay with SR leukemia it was 23.7 µM; with HT29 colon, 34.3 µM; with SNB-19 CNS it was 25.2 µM; in the assay with TK-10 renal, 11.4 µM; in the assay on IGROV1 ovarian it was 30.5 µM. The TGI in the assay on M14 melanoma was 7.76 µM; with OVCAR-4 ovarian, 23 µM.

Regarding `O=c1c(Br)cc2nc3ccccc3sc-2c1Br`, the total growth inhibition concentration (TGI) in the assay with RPMI-8226 leukemia, in the assay on SR leukemia, in the assay on HT29 colon, in the assay with SNB-19 CNS, in the assay on TK-10 renal and in the assay with IGROV1 ovarian was more than 100 µM throughout. Moreover, the figures for the total growth inhibition concentration (TGI) in the assay on M14 melanoma and in the assay with OVCAR-4 ovarian were more than 100 µM and more than 70.9 µM, respectively.

As to `Cc1cccc(C)c1NC(=O)C1C(=O)N(c2c(C)cccc2C)C(=O)/C1=N\N` (configuration not stated), the TGI in the assay on RPMI-8226 leukemia, in the assay with SR leukemia, in the assay on HT29 colon, with SNB-19 CNS, with TK-10 renal and in the assay on IGROV1 ovarian was more than 100 µM in each case. In addition, the concentration for total growth inhibition (TGI) with M14 melanoma and in the assay on OVCAR-4 ovarian was more than 100 µM each time.

For the molecule `CC1=C(O)C(=O)C2C(=O)C1C1Cc3ccccc3C21` (configuration not stated), the concentration for total growth inhibition (TGI) in the assay with RPMI-8226 leukemia, in the assay with SR leukemia, in the assay with HT29 colon, in the assay with SNB-19 CNS, with TK-10 renal and with IGROV1 ovarian was more than 100 µM each time. Besides, the total growth inhibition concentration (TGI) in the assay with M14 melanoma and in the assay with OVCAR-4 ovarian was more than 100 µM each time.

Regarding `CC(C)([NH-])CO.CC(C)([NH-])CO.[Cl][Cd][Cl]`, the GI50 in the assay with RPMI-8226 leukemia was 14.5 µM; in the assay on SR leukemia, 20 µM; with HT29 colon, 28.8 µM; in the assay with SNB-19 CNS, more than 100 µM; with TK-10 renal, 19.1 µM; in the assay with IGROV1 ovarian, 19 µM. The values for the GI50 in the assay on M14 melanoma and with OVCAR-4 ovarian were 18 µM and 12.4 µM, respectively. For the same molecule, the TGI in the assay with RPMI-8226 leukemia was 43.8 µM; in the assay on SR leukemia it was 44.5 µM; in the assay with HT29 colon, 67.1 µM; with SNB-19 CNS, more than 100 µM; in the assay with TK-10 renal, 53.6 µM; in the assay on IGROV1 ovarian, 36.7 µM. Also, the figures for the concentration for total growth inhibition (TGI) in the assay on M14 melanoma and with OVCAR-4 ovarian were 33.4 µM and 25.8 µM, respectively.

As to `NC(=O)/N=C1/CCC2C3CCCC2C13`, the TGI with RPMI-8226 leukemia, with SR leukemia, in the assay with HT29 colon, in the assay with SNB-19 CNS, with TK-10 renal and with IGROV1 ovarian was more than 100 µM in each case. Further, the TGI in the assay with M14 melanoma and with OVCAR-4 ovarian was more than 100 µM in each case.

`COc1ccc(-c2cc(=O)c3cc(OC)ccc3[nH]2)cc1`: the concentration for total growth inhibition (TGI) in the assay with RPMI-8226 leukemia, with SR leukemia, with HT29 colon, in the assay on SNB-19 CNS, with TK-10 renal and in the assay with IGROV1 ovarian was more than 100 µM each time. For the same molecule, the concentration for total growth inhibition (TGI) in the assay on M14 melanoma and with OVCAR-4 ovarian was more than 100 µM in each case.

Regarding `O=C(O)CCC(N=Cc1nc(-c2ccccc2)oc1O)C(=O)O` (configuration not stated), the total growth inhibition concentration (TGI) in the assay with RPMI-8226 leukemia, in the assay with SR leukemia, with HT29 colon, with SNB-19 CNS, with TK-10 renal and in the assay on IGROV1 ovarian was more than 100 µM throughout. Further, the TGI in the assay with M14 melanoma and in the assay with OVCAR-4 ovarian was more than 100 µM each time.

In the case of `COc1ccc(/C(Cl)=C(\C=N/O)c2ccc(OC)c(OC)c2)cc1OC`, the TGI with RPMI-8226 leukemia, with SR leukemia, in the assay on HT29 colon, in the assay on SNB-19 CNS, with TK-10 renal and in the assay on IGROV1 ovarian was more than 100 µM throughout. For the same molecule, the TGI in the assay on M14 melanoma and with OVCAR-4 ovarian was more than 100 µM throughout.

With `Cc1cccc(C(C)(C)C)c1NC(=O)CC1C(=O)Nc2ccccc2S1(=O)=O` (configuration not stated), the concentration for total growth inhibition (TGI) in the assay with RPMI-8226 leukemia worked out at 17.2 µM; in the assay with SR leukemia, 7.13 µM; with HT29 colon, 16.3 µM; in the assay on SNB-19 CNS, 29.2 µM; in the assay with TK-10 renal, 42 µM; in the assay with IGROV1 ovarian it was 21.8 µM. Besides, the TGI with M14 melanoma is 27.8 µM; with OVCAR-4 ovarian, 25.5 µM.

Take `CC(Nc1ccc(S(=O)(=O)N=C(N)N)cc1)c1c2ccccc2nc2ccccc12` (configuration not stated): the total growth inhibition concentration (TGI) with RPMI-8226 leukemia is 55.2 µM; with SR leukemia, 65.7 µM; with HT29 colon it was more than 100 µM; in the assay on SNB-19 CNS it was more than 100 µM; in the assay on TK-10 renal, more than 100 µM; in the assay with IGROV1 ovarian, more than 100 µM. The total growth inhibition concentration (TGI) is more than 100 µM in the assay with M14 melanoma and 31.3 µM with OVCAR-4 ovarian.

Turning to `Cn1cnc([N+](=O)[O-])c1Sc1nccn1-c1cccc2ccccc12`, the TGI with RPMI-8226 leukemia is 49.9 µM; with SR leukemia, 50.5 µM; in the assay on HT29 colon, 88.1 µM; in the assay on SNB-19 CNS, more than 100 µM; with TK-10 renal, more than 100 µM; in the assay on IGROV1 ovarian, more than 100 µM. In addition, the TGI in the assay with M14 melanoma turned out to be 61 µM; in the assay on OVCAR-4 ovarian it was 95.3 µM.
